Measured values: patent publication US9284325B2, “Spectinamides as anti-tuberculosis agents” (UNIVERSITY OF TENNESSEE RESEARCH FOUNDATION, priority 2009, dated 2016)
≈ marks a conversion by molar mass, not a printed value. Where a name gives a salt, the structure may show the parent alone.

Tests used:
E. coli K12 = assay: MIC determination by microbroth dilution; type: cell-based, Escherichia coli; conditions: Escherichia coli, K12
[1] = test system: Strenotrophomonas maltophilia ATCC 13637; assay: MIC determination by microbroth dilution; type: cell-based
[2] = test system: Burkholderia cepacia ATCC 25416; assay: MIC determination by microbroth dilution; type: cell-based; conditions: ATCC25416, read-out: MIC B. cepcia
[3] = test system: Strep. pyogenes ATCC 700294; assay: MIC determination by microbroth dilution; type: cell-based, Streptococcus pyogenes; conditions: Streptococcus pyogenes, ATCC700294, read-out: MIC S. pyogenes
[4] = test system: S. aureus 8325 or strain ATCC 29213; assay: MIC determination by microbroth dilution; type: cell-based, Staphylococcus aureus; conditions: Staphylococcus aureus, ATCC29213; S. aureus 8325 or strain ATCC 29213 (for 1471-1544)
E. faecalis ATCC 33186 = assay: MIC determination by microbroth dilution; type: cell-based, Enterococcus faecalis; conditions: Enterococcus faecalis, ATCC33186
M. tuberculosis H37Rv = assay: MIC determination by microbroth dilution, anti-tuberculosis activity; type: cell-based, Mycobacterium tuberculosis; conditions: Mycobacterium tuberculosis, H37RV, 168 h; read-out: MIC
[5] = test system: Proteus mirabilis ATCC 25933; assay: MIC determination by microbroth dilution; type: cell-based; conditions: ATCC25933
[6] = test system: Acinetobacter baumannii ATCC 19606; assay: MIC determination by microbroth dilution; type: cell-based; conditions: ATCC19606
[7] = test system: Strep. pneumoniae DAW27 or strain R6; assay: MIC determination by microbroth dilution; type: cell-based, Streptococcus pneumoniae; conditions: Streptococcus pneumoniae; Strep. pneumoniae DAW27 or strain R6 (for 1443-1544); read-out: MIC S. pneumoniae
[8] = test system: Klebsiella pneumoniae ATCC 33495; assay: MIC determination by microbroth dilution; type: cell-based; conditions: ATCC33495
B. anthracis Sterne 34F2 = assay: microbe, parasite or virus in culture; type: cell-based, Bacillus anthracis; conditions: Bacillus anthracis, STERNE34F2, read-out: MIC B. anthracis 34F2
P. aeruginosa PAO1 = assay: MIC determination by microbroth dilution; type: cell-based, Pseudomonas aeruginosa; conditions: Pseudomonas aeruginosa
[9] = test system: Proteus vulgaris ATCC 33420; assay: MIC determination by microbroth dilution; type: cell-based; conditions: ATCC33420
E. coli K12 ΔtolC = assay: microbe, parasite or virus in culture; type: cell-based; conditions: Escherichia coli, read-out: MIC E. coli K12 ΔtolC

Compound | MIC (E. coli K12) [µg/mL] | MIC [1] [µg/mL] | MIC [2] [µg/mL] | MIC [3] [µg/mL] | MIC [4] [µg/mL] | MIC (E. faecalis ATCC 33186) [µg/mL] | MIC (M. tuberculosis H37Rv) [µg/mL] | MIC [5] [µg/mL] | MIC [6] [µg/mL] | MIC [7] [µg/mL] | MIC [8] [µg/mL] | MIC (B. anthracis Sterne 34F2) [µg/mL] | MIC (P. aeruginosa PAO1) [µg/mL] | MIC [9] [µg/mL] | MIC (E. coli K12 ΔtolC) [µg/mL]
CN[C@@H]1[C@H](O)[C@H](NC)C2O[C@]3(O)C(OC2[C@H]1O)O[C@H](C)C[C@H]3NC(=O)C(c1ccccc1)c1ccccc1 (stereo partly drawn) [Compound 1514, 3′-Dihydro-3′-deoxy-4(R)-(2,2-diphenyl)acetylamino spectinomycin dihydrochloride] | > 200 | > 200 | > 200 | > 200 | > 200 | > 200 | > 200 | > 200 | > 200 | > 200 | > 200 | > 200 | > 200 | > 200 | > 200
CN[C@@H]1[C@H](O)[C@H](NC)C2O[C@]3(O)C(OC2[C@H]1O)O[C@H](C)C[C@H]3NC(=O)Cc1ccc(C)cc1 (stereo partly drawn) [Compound 1399, 3′-Dihydro-3′-deoxy-4(R)-p-tolylacetylamino spectinomycin Dihydrochloride] | > 200 | > 200 | > 200 | 25 | 50 | 200 | 6.1 | > 200 | > 200 | 25 | > 200 | 100 | 100 | > 200 | 100
CN[C@@H]1[C@H](O)[C@H](NC)C2O[C@]3(O)C(OC2[C@H]1O)O[C@H](C)C[C@H]3NC(=O)Cc1cccc(OC)c1 (stereo partly drawn) [Compound 1400, 3′-Dihydro-3′-deoxy-4(R)-(3-methoxy-phenyl)acetylamino spectinomycin Dihydrochloride] | > 200 | > 200 | > 200 | > 200 | > 200 | 100 | 12.5 | > 200 | > 200 | 100 | > 200 | 200 | 100 | > 200 | > 200
CN[C@@H]1[C@H](O)[C@H](NC)C2O[C@]3(O)C(OC2[C@H]1O)O[C@H](C)C[C@H]3NC(=O)Cc1nccs1 (stereo partly drawn) [Compound 1489, 3′-Dihydro-3′-deoxy-4(R)-(thiazol-2-yl)acetylamino spectinomycin tetradrobromide] | 200 (≈ 436 µM) | > 200 | > 200 | 12.5 (≈ 27.3 µM) | 100 (≈ 218 µM) | 100 (≈ 218 µM) | 6.25 (≈ 13.6 µM) | > 200 | > 200 | 12.5 (≈ 27.3 µM) | > 200 | > 200 | > 200 | > 200 | 50 (≈ 109 µM)
CN[C@@H]1[C@H](O)[C@H](NC)C2O[C@]3(O)C(OC2[C@H]1O)O[C@H](C)C[C@H]3NC(=O)[C@H](C)N (stereo partly drawn) [Compound 1467, 3′-Dihydro-3′-deoxy-4(R)-[2(S)-amino]propanoylamino spectinomycin Trihydrochloride] | 200 | 100 | > 200 | 50 | > 200 | > 200 | 200 | 200 | > 200 | 50 | > 200 | > 200 | > 200 | > 200 | 200
CN[C@@H]1[C@H](O)[C@H](NC)C2O[C@]3(O)C(OC2[C@H]1O)O[C@H](C)C[C@H]3NC(=O)Cc1ccc(-c2ccc(F)cc2)cn1 (stereo partly drawn) [Compound 1542, 3′-Dihydro-3′-deoxy-4(R)-(5-(4-fluorophenyl)pyridin-2-yl)acetylamino spectinomycin tribromide] | > 200 | > 200 | > 200 | 6.25 | 100 | 25 | 3.12 | > 200 | > 200 | 3.1 | > 200 | > 200 | > 200 | > 200 | 12.5
CN[C@@H]1[C@H](O)[C@H](NC)C2O[C@]3(O)C(OC2[C@H]1O)O[C@H](C)C[C@H]3NC(=O)Cc1cc(Cl)ccn1 (stereo partly drawn) [Compound 1544, 3′-Dihydro-3′-deoxy-4(R)-(4-chloropyridin-2-yl)acetylamino spec-tinomycin tribromide] | > 200 | > 200 | > 200 | 12.5 | 50 | 100 | 0.8 | > 200 | > 200 | 6.25 | > 200 | > 200 | > 200 | > 200 | 12.5
CN[C@@H]1[C@H](O)[C@H](NC)C2O[C@]3(O)C(OC2[C@H]1O)O[C@H](C)C[C@H]3NC(=O)Cc1csc(-c2ccccc2)n1 (stereo partly drawn) [Compound 1517, 3′-Dihydro-3′-deoxy-4(R)-(2-phenylthiazol-4-yl)acetylamino spectinomycin trihydrobromide] | > 200 | > 200 | > 200 | 6.25 | 200 | 100 | 50 | > 200 | > 200 | 6.25 | > 200 | > 200 | > 200 | > 200 | 200
CN[C@@H]1[C@H](O)[C@H](NC)C2O[C@]3(O)C(OC2[C@H]1O)O[C@H](C)C[C@H]3NC(=O)Cc1cn(Cc2ccccc2)nn1 (stereo partly drawn) [Compound 1537, 3′-Dihydro-3′-deoxy-4(R)-2-(1-benzyl-1H-1,2,3-triazol-4-yl)acetyl-amino spectinomycin tetrabromide] | > 200 | > 200 | > 200 | 3.1 (≈ 5.82 µM) | 100 (≈ 188 µM) | 25 (≈ 46.9 µM) | 50 (≈ 93.9 µM) | > 200 | > 200 | 3.1 (≈ 5.82 µM) | > 200 | > 200 | > 200 | > 200 | 12.5 (≈ 23.5 µM)
CN[C@@H]1[C@H](O)[C@H](NC)C2O[C@]3(O)C(OC2[C@H]1O)O[C@H](C)C[C@H]3NC(=O)Cc1ccc(-c2ccccc2)cn1 (stereo partly drawn) [Compound 1519, 3′-Dihydro-3′-deoxy-4(R)-(5-phenylpyridin-2-yl)acetylamino spectinomycin trihydrobromide] | > 200 | > 200 | > 200 | 12.5 | 100 | 25 | 3.12 | > 200 | > 200 | 3.1 | > 200 | > 200 | > 200 | > 200 | 12.5
CN[C@@H]1[C@H](O)[C@H](NC)C2O[C@]3(O)C(OC2[C@H]1O)O[C@H](C)C[C@H]3NC(=O)[C@@H](C)N (stereo partly drawn) [Compound 1501, 3′-Dihydro-3′-deoxy-4(R)[2(R)-amino]propanoylamino spectinomycin Trihydrochloride] | > 200 | > 200 | > 200 | > 200 | > 200 | > 200 | > 200 | > 200 | > 200 | > 200 | > 200 | > 200 | > 200 | > 200 | > 200
CN[C@@H]1[C@H](O)[C@H](NC)C2O[C@]3(O)C(OC2[C@@H]1O)O[C@H](C)C[C@H]3NC(=O)Cc1nc2ccccc2s1 (stereo partly drawn) [Compound 1491, 3′-Dihydro-3′-deoxy-4(R)-(benzothiazol-2-yl)acetylamino spectinomycin trihydrobromide] | 200 | > 200 | > 200 | 12.5 | 100 | 25 | 1.6 | > 200 | > 200 | 6.25 | > 200 | > 200 | > 200 | > 200 | 12.5
CN[C@@H]1[C@H](O)[C@H](NC)C2O[C@]3(O)C(OC2[C@H]1O)O[C@H](C)C[C@H]3NC(=O)CN (stereo partly drawn) [Compound 1470, 3′-Dihydro-3′-deoxy-4(R)-(2-amino)acetylamino spectinomycin Trihydrochloride] | > 200 | > 200 | > 200 | > 200 | > 200 | > 200 | 200 | > 200 | > 200 | > 200 | > 200 | > 200 | > 200 | > 200 | > 200
